Test system: Human subcutaneous preadipocytes
Assay: Lipolysis assay (glycerol release) in differentiated human subcutaneous preadipocytes
Type: cell-based
Description: Human subcutaneous preadipocytes were obtained from human patients undergoing liposuction and pooled. The characteristics of the patients are shown below: • Sex: F • B.M.I.: 27.25 (avg.) • AGE: 43 (avg.) The human subcutaneous preadiposytes were designated lot #SL0028.
Preadipocytes were plated in 96-well plates and allowed to differentiate in the absence of compounds (e.g., sclareolide or sclareolide+GPM) for about two weeks. On the day of the assay, the culture medium was removed and the cells were washed gently with Krebs-Ringer buffer (KRB) in the following manner. 120 μl of medium in the wells was removed and 200 μl/well of KRB was added. The KRB in the wells was removed and another aliquot of 200 μl/well of the KRB was added. The wells were washed one row at a time to ensure that the cells remained moist and stayed attached to the plate.
Next, all of the KRB was removed and the cells were treated with 150 μl/well of the controls or 150 μl/well of the test compounds (resuspended in KRB with 1% BSA), either 1) sclareolide at […] or 2) sclareolide plus GPM at […], and incubated at 37° C. for five hours. The assay was performed in triplicate.
At the end of the treatment, 100 μl/well of the conditioned media was removed from the assay plate and added to the corresponding well of a new plate. […]
The optical density of each well of the new plate was measured at 540 nm.

Structure (SMILES): CC1(C)CCC[C@]2(C)[C@H]3CC(=O)O[C@]3(C)CC[C@@H]12 [Sclareolide]
- % Increase in Lipolysis over Control (Sclareolide concentration 10 μg/ml, 37° C. for five hours, glycerol assay, OD 540 nm, triplicate): 55%
- Lipolysis over the control (in words) (sclareolide 10 μg/ml, sclareolide+GPM 7.5 μg/ml, five hours): significantly increased lipolysis over the control

Source: patent US7785585B2, “Compositions comprising sclareol or derivatives thereof and uses thereof” (Avoca, Inc., priority 2004, dated 2010)
